# Experimental data taken from patent US20050049241A1, “Pyridyl piperazinyl ureas” (priority 2003, published 2005).
# Assays:
# guinea pigs = details: cough induced by capsaicin and citric acid; cited from earlier work
# guinea pig pain models = details: guinea pig models of inflammatory and neuropathic pain; cited from earlier work
# VR1 [1] = biological target: T1, VR1 (Homo sapiens, UniProt Q8NER1); assay: Functional assay: block of capsaicin-induced Ca2+ influx (FLIPR, hVR1/HEK293 cells); assay type: cell-based; design: expressed in transfected cells; host or cells: HEK293
# Experimental: Functional assay: block of capsaicin-induced Ca^2+ influx
# The contents of the wells were mixed 3 times (40 μL mix volume) immediately after the additions were made.
# VR1 [2] = biological target: T1, VR1; assay: [3H] Resiniferatoxin binding assay on cell membranes; design: expressed in transfected cells; inferred to be hVR1/HEK293; details: [3H] RTX displacement, 37° C. 60 min
# Experimental: Resiniferatoxin Binding Assay
# Cell membranes were prepared by washing cells with Hank's Balanced Salt Solution. Cells were dissociated with cell dissociation buffer (Sigma), and then centrifuged at 1000×g for 5 min. Cell pellets were homogenized in cold 20 mM HEPES buffer, pH 7.4, containing 5.8 mM NaCl, 320 mM sucrose, 2 mM MgCl2, 0.75 mM CaCl2 and 5 mM KCl and centrifuged at 1000×g for 15 min. The resultant supernatant was then centrifuged at 4000×g for 15 min. The pellet membranes were stored at −80° C. […] Briefly, about 120 μg protein/mL membranes were incubated with the indicated concentration of [^3H] RTX (New England Nuclear) in 0.5 mL of the HEPES buffer (pH 7.4) containing 0.25 mg/mL fat acid free bovine serum albumin at 37° C. for 60 min and then the reaction mixture was cooled to 4° C. α1-Acid glycoprotein (0.1 mg) was added to each sample and was incubated at 4° C. for 15 min. The samples were centrifuged at 18,500 g for 15 min. The tip of the microcentrifuge tube containing the pellets was cut off. The non-specific binding was tested in the presence of 200 nM unlabeled RTX. Bound radioactivity was quantified by scintillation counting. Ki is calculated based on a non-linear regression program (PRISM™ software, GraphPad Software, San Diego, Calif.).
# T1 sequence (Q8NER1 whole entry): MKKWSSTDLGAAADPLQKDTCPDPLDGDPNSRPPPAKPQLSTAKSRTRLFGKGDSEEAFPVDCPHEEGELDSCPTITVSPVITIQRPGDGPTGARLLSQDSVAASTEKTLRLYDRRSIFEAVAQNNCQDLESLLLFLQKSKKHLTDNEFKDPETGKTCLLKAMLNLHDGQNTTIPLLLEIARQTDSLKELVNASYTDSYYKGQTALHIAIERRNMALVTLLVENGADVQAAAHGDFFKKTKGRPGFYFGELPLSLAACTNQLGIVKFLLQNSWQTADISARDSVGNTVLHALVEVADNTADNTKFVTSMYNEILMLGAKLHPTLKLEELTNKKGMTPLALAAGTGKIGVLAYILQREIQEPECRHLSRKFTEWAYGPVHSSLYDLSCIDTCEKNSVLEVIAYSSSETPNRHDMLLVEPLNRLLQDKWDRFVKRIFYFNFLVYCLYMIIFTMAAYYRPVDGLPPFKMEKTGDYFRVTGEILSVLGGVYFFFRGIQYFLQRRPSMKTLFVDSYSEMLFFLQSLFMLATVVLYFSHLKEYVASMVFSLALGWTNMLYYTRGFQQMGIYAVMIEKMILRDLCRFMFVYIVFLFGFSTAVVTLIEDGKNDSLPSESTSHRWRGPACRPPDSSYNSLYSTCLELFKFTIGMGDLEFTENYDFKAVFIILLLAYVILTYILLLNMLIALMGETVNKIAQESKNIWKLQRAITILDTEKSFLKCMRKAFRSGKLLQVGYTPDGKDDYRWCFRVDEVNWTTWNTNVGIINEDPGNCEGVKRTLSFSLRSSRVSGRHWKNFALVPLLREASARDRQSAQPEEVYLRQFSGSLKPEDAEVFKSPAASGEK
compound,measurement,setting,value
Oc1cc2c(cc1O)CN(C(=S)NCCc1ccc(Cl)cc1)CCC2 [Capsazepine],inhibition of cough,guinea pigs,inhibits cough induced by capsaicin and citric acid
same,reversal of mechanical hyperalgesia,guinea pig pain models,reverses mechanical hyperalgesia
COc1cc(CNC(=O)CCCC/C=C/C(C)C)ccc1O [capsaicin],capsaicin concentration at ~EC80,"VR1 [1]; agonist, human recombinant VR1 in hVR1/HEK293",~15 nM
"O=C(Nc1ccc(C(F)(F)F)cn1)N1CCN(c2ncccc2Cl)CC1 [Comparative A, 4-(3-chloro-pyridin-2-yl)-piperazine-1-carboxylic acid (5-trifluoromethyl-pyridin-2-yl)-amide]",Ki,VR1 [2],1020 nM
same,IC50,"VR1 [1]; block of Ca2+ influx induced by 15 nM capsaicin, hVR1/HEK293, 3 and 60 min incubation data combined",120 nM
